The target of one data set is T1, Aurora2 (Aurora-A) (Homo sapiens, UniProt O14965).
T1 construct: Aurora-A: the full length recombinant protein including an N-terminal poly-histidine tail has been expressed in E. coli; poly-histidine (N); made in house; host or cells: E. coli
T1 sequence (O14965 1-403): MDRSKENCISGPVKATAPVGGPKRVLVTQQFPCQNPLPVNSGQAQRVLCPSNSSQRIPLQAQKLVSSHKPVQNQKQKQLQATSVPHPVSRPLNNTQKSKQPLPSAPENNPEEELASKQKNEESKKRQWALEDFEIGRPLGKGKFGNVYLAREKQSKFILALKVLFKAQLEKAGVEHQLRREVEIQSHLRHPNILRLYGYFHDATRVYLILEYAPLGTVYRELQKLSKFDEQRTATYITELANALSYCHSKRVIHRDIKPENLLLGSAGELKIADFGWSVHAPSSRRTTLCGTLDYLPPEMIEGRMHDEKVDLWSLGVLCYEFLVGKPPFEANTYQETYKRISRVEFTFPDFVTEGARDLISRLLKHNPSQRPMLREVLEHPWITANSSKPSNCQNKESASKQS
The experiment in a line: Aurora 2 (Aurora A) kinase radioactivity scintillation assay using nickel chelate Flash plates. It is filed as biochemical. To be noted: 10 nM Aurora-A, 500 nM NuMA substrate, 1 μM ATP with [33P] ATP, 10 mM MgCl2, 30 minutes, 37° C. The method in brief:
(§1)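 10 nM Aurora-B or Aurora-A with 500 nM NuMA-His substrate, 1 μM ATP plus [³³P]ATP, in 50 mM NaCl, 1 mM DTT and 5 mM (B) or 10 mM (A) MgCl2, 30 min at 37° C on nickel-chelate plates. Incorporated ³³P counted after washing, background-subtracted; IC50 fitted from % inhibition versus concentration.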

A further data set deals with T2, Aurora1 (Aurora-B) (Homo sapiens, UniProt Q96GD4).
T2 construct: Aurora-B: the full length protein (His tagged in N-terminal) has been co expressed in SF9 cells; poly-histidine (N); made in house; host or cells: SF9 cells
T2 sequence (Q96GD4 whole entry, species assumed): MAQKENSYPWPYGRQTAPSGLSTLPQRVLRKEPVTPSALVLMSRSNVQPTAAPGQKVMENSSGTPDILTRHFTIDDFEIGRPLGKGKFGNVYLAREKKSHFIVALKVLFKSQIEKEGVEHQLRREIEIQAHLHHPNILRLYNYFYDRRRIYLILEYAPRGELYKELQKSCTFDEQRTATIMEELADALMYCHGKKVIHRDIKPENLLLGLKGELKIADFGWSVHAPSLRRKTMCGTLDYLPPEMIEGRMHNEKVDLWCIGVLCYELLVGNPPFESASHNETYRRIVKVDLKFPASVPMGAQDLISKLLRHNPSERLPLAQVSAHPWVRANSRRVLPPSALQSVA
T2 sequence (Q9NQS7 821-918 partner limits assumed, species assumed): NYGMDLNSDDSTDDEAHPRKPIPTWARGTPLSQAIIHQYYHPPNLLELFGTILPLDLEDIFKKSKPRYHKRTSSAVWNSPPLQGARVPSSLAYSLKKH
The experiment in a line: Aurora 1 (Aurora B) kinase radioactivity scintillation assay using nickel chelate Flash plates. It is filed as biochemical. To be noted: 10 nM Aurora-B (co expressed with C3 fragment of INCEP), 500 nM NuMA substrate, 1 μM ATP with [33P] ATP, 5 mM MgCl2, 30 minutes, 37° C. The gist of the method: as §1

Counter-ions that a name gives are not always drawn.

As a reminder, the IC50 is the concentration that inhibits the measured activity by half. A word on the melting point: it is the temperature, or range, at which the solid turns liquid.

Turning to `CCOC(=O)c1[nH]cc2c1NC1=C(C(=O)CCC1)C2c1ccc(Sc2nc3cc(OC)ccc3[nH]2)o1` (stereo not drawn) [Example 110, 9-[5-(5-Methoxy-1H-benzimidazol-2-ylsulfanyl)-furan-2-yl]-8-oxo-4,5,6,7,8,9-hexahydro-2H-pyrrolo[3,4-b]quinoline-3-carboxylic acid ethyl ester], the melting point is 140 °C. Moreover, the IC50 at Aurora2 (Aurora-A) was determined as 21 nM. For the same compound, at Aurora1 (Aurora-B), the concentration for half-maximal inhibition (IC50) turned out to be 8 nM.

On to `CCOC(=O)c1[nH]cc2c1NC1=C(C(=O)CNC1)C2c1ccc(Sc2nc3cc(OC)ccc3[nH]2)o1` (stereo not drawn) [Example 111, 9-[5-(6-Methoxy-1H-benzimidazol-2-ylsulfanyl)-furan-2-yl]-8-oxo-4,5,6,7,8,9-hexahydro-2H-pyrrolo[3,4-b][1,7]naphthyridine-3-carboxylic acid ethyl ester], for which the melting point stood at 248 °C. Further, on Aurora2 (Aurora-A), the IC50 was 1250 nM. Moreover, the IC50 on Aurora1 (Aurora-B) stood at 501 nM.

Compound `CCOC(=O)c1[nH]cc2c1NC1=C(C(=O)CCC1)C2c1ccc(Sc2nc3cccnc3[nH]2)o1` (stereo not drawn) [Example 112, 9-[5-(3H-Imidazo[4,5-b]pyridin-2-ylsulfanyl)-furan-2-yl]-8-oxo-4,5,6,7,8,9-hexahydro-2H-pyrrolo[3,4-b]quinoline-3-carboxylic acid ethyl ester] displayed a melting point of 190 to 202 °C. Further, on Aurora1 (Aurora-B), the IC50 was determined as 12 nM.

Take `CCOC(=O)c1[nH]cc2c1NC1=C(C(=O)CNC1)C2c1ccc(Sc2nc3cc(F)c(F)cc3[nH]2)o1` (stereo not drawn) [Example 115, 9-[5-(5,6-Difluoro-1H-benzimidazol-2-ylsulfanyl)-furan-2-yl]-8-oxo-4,5,6,7,8,9-hexahydro-2H-pyrrolo[3,4-b][1,7]naphthyridine-3-carboxylic acid ethyl ester]: the melting point lay within 190 to 196 °C. Also, the concentration for half-maximal inhibition (IC50) on Aurora2 (Aurora-A) came out at 48 nM. In addition, on Aurora1 (Aurora-B), the IC50 was determined as 8 nM.

As for `CCOC(=O)c1[nH]cc2c1NC1=C(C(=O)CCC1)C2c1cnc(Sc2nc3ccccc3[nH]2)s1` (stereo not drawn) [Example 118, 9-[2-(1H-Benzimidazol-2-ylsulfanyl)-thiazol-5-yl]-8-oxo-4,5,6,7,8,9-hexahydro-2H-pyrrolo[3,4-b]quinoline-3-carboxylic acid ethyl ester], the melting point was 194 °C.

On to `CCOC(=O)c1[nH]cc2c1NC1=C(C(=O)CNC1)C2c1ccc(Sc2nc3cc(Cl)c(C)cc3[nH]2)o1` (stereo not drawn) [Example 135, 9-[5-(5-Chloro-6-methyl-1H-benzimidazol-2-ylsulfanyl)-furan-2-yl]-8-oxo-4,5,6,7,8,9-hexahydro-2H-pyrrolo[3,4-b]-1,7-naphthyridine-3-carboxylic acid ethyl ester hydrochloride], for which the half-inhibitory concentration (IC50) came out at 120 nM at Aurora2 (Aurora-A) and 22 nM on Aurora1 (Aurora-B).

For the compound `CCOC(=O)c1[nH]cc2c1NC1=C(C(=O)CCC1)C2c1ccc(Sc2nc3cc(Cl)cc(C)c3[nH]2)o1` (stereo not drawn) [Example 136, 9-[5-(5-Chloro-7-methyl-1H-benzimidazol-2-ylsulfanyl)-furan-2-yl]-8-oxo-4,5,6,7,8,9-hexahydro-2H-pyrrolo[3,4-b]quinoline-3-carboxylic acid ethyl ester], the IC50 came to 18 nM at Aurora2 (Aurora-A) and 12 nM at Aurora1 (Aurora-B).

With `CCOC(=O)c1[nH]cc2c1NC1=C(C(=O)CN(C(=O)OC(C)(C)C)C1)C2c1ccc(Sc2nc3cc(Cl)cc(C)c3[nH]2)o1` (stereo not drawn) [Example 137, 6-tert-Butyloxy-9-[5-(5-chloro-7-methyl-1H-benzimidazol-2-ylsulfanyl)-furan-2-yl]-8-oxo-2,4,5,7,8,9-hexahydro-pyrrolo[3,4-b]-1,7-naphthyridine-3-carboxylic acid ethyl ester], the IC50 at Aurora2 (Aurora-A) was 205 nM; on Aurora1 (Aurora-B) it was 93 nM.

Regarding `CCOC(=O)c1[nH]cc2c1NC1=C(C(=O)CNC1)C2c1ccc(Sc2nc3cc(Cl)cc(C)c3[nH]2)o1` (stereo not drawn) [Example 138, 9-[5-(5-Chloro-7-methyl-1H-benzimidazol-2-ylsulfanyl)-furan-2-yl]-8-oxo-4,5,6,7,8,9-hexahydro-2H-pyrrolo[3,4-b]-1,7-naphthyridine-3-carboxylic acid ethyl ester hydrochloride], the IC50 on Aurora2 (Aurora-A) turned out to be 8 nM; on Aurora1 (Aurora-B), 6 nM.

Consider `CCOC(=O)c1[nH]cc2c1NC1=C(C(=O)CCC1)C2c1ccc(Sc2nc3cc4c(cc3[nH]2)OC(F)(F)O4)o1` (stereo not drawn) [Example 139, 9-[5-(2,2-Difluoro-5H-[1,3]dioxolo[4′,5′:4,5]benzo[1,2-d]imidazol-6-ylsulfanyl)-furan-2-yl]-8-oxo-4,5,6,7,8,9-hexahydro-2H-pyrrolo[3,4-b]quinoline-3-carboxylic acid ethyl ester], for which the IC50 on Aurora2 (Aurora-A) came to 124 nM; at Aurora1 (Aurora-B), 19 nM.

In the case of `CCOC(=O)c1[nH]cc2c1NC1=C(C(=O)CN(C(=O)OC(C)(C)C)C1)C2c1ccc(Sc2nc3cc4c(cc3[nH]2)OC(F)(F)O4)o1` (stereo not drawn) [Example 140], the values for the concentration for half-maximal inhibition (IC50) at Aurora2 (Aurora-A) and on Aurora1 (Aurora-B) were 3900 nM and 1660 nM, respectively.

With `CCOC(=O)c1[nH]cc2c1NC1=C(C(=O)CNC1)C2c1ccc(Sc2nc3cc4c(cc3[nH]2)OC(F)(F)O4)o1` (stereo not drawn) [Example 141, 9-[5-(2,2-Difluoro-5H-[1,3]dioxolo[4′,5′:4,5]benzo[1,2-d]imidazol-6-ylsulfanyl)-furan-2-yl]-8-oxo-4,5,6,7,8,9-hexahydro-2H-pyrrolo[3,4-b]-1,7-naphthyridine-3-carboxylic acid ethyl ester hydrochloride], the values for the IC50 at Aurora2 (Aurora-A) and at Aurora1 (Aurora-B) were 87 nM and 20 nM, respectively.

In the case of `CCOC(=O)c1[nH]cc2c1NC1=C(C(=O)CNC1)C2c1ccc(Sc2nc3cc(F)cc(F)c3[nH]2)o1` (stereo not drawn) [Example 143, 9-[5-(5,7-Difluoro-1H-benzimidazol-2-ylsulfanyl)-furan-2-yl]-8-oxo-4,5,6,7,8,9-hexahydro-2H-pyrrolo[3,4-b]-1,7-naphthyridine-3-carboxylic acid ethyl ester hydrochloride], the IC50 stood at 26 nM at Aurora2 (Aurora-A) and 7 nM on Aurora1 (Aurora-B).

Regarding `O=C1CCCC2=C1C(c1ccc(Sc3nc4cc(F)cc(F)c4[nH]3)o1)c1c[nH]nc1N2` (stereo not drawn) [Example 144, 4-[5-(5,7-Difluoro-1H-benzimidazol-2-ylsulfanyl)-furan-2-yl]-2,4,6,7,8,9-hexahydro-pyrazolo[3,4-b]quinolin-5-one], the IC50 at Aurora2 (Aurora-A) stood at 28 nM; on Aurora1 (Aurora-B), 6 nM.

With `O=C1CNCC2=C1C(c1ccc(Sc3nc4cc(F)cc(F)c4[nH]3)o1)c1c[nH]nc1N2` (stereo not drawn) [Example 145, 4-[5-(5,7-Difluoro-1H-benzimidazol-2-ylsulfanyl)-furan-2-yl]-2,4,6,7,8,9-hexahydro-pyrazolo[3,4b]-1,7-naphthyridin-5-one hydrochloride], the IC50 stood at 131 nM at Aurora2 (Aurora-A) and 16 nM at Aurora1 (Aurora-B).

As for `CCOC(=O)c1[nH]cc2c1NC1=C(C(=O)CCC1)C2c1ccc(Sc2nc3cc(F)c(Cl)cc3[nH]2)o1` (stereo not drawn) [Example 146, 9-[5-(6-Chloro-5-fluoro-1H-benzimidazol-2-ylsulfanyl)-furan-2-yl]-8-oxo-4,5,6,7,8,9-hexahydro-2H-pyrrolo[3,4-b]quinoline-3-carboxylic acid ethyl ester], the results for the IC50 on Aurora2 (Aurora-A) and on Aurora1 (Aurora-B) were 41 nM and 6 nM, respectively.

As for `CCOC(=O)c1[nH]cc2c1NC1=C(C(=O)CNC1)C2c1ccc(Sc2nc3cc(F)c(Cl)cc3[nH]2)o1` (stereo not drawn) [Example 147, 9-[5-(6-Chloro-5-fluoro-1H-benzimidazol-2-ylsulfanyl)-furan-2-yl]-8-oxo-4,5,6,7,8,9-hexahydro-2H-pyrrolo[3,4-b]-1,7-naphthyridine-3-carboxylic acid ethyl ester hydrochloride], the IC50 at Aurora2 (Aurora-A) came to 67 nM; at Aurora1 (Aurora-B), 9 nM.

Take `CCOC(=O)c1[nH]cc2c1NC1=C(C(=O)CNC1)C2c1ccc(Sc2nc3cc(F)ccc3[nH]2)o1` (stereo not drawn) [Example 149, 9-[5-(5-Fluoro-1H-benzimidazol-2-ylsulfanyl)-furan-2-yl]-8-oxo-4,5,6,7,8,9-hexahydro-2H-pyrrolo[3,4-b]-1,7-naphthyridine-3-carboxylic acid ethyl ester hydrochloride]: the IC50 at Aurora2 (Aurora-A) was found to be 55 nM; at Aurora1 (Aurora-B), 11 nM.

In the case of `CCOC(=O)c1[nH]cc2c1NC1=C(C(=O)CCC1)C2c1ccc(Sc2nc3cc(OC(F)(F)F)ccc3[nH]2)o1` (stereo not drawn) [Example 150, 8-Oxo-9-[5-(5-trifluoromethoxy-1H-benzimidazol-2-ylsulfanyl)-furan-2-yl]-4,5,6,7,8,9-hexahydro-2H-pyrrolo[3,4-b]quinoline-3-carboxylic acid ethyl ester], the IC50 on Aurora2 (Aurora-A) is 29 nM; at Aurora1 (Aurora-B) it was 19 nM.

Consider `CCOC(=O)c1[nH]cc2c1NC1=C(C(=O)CNC1)C2c1ccc(Sc2nc3cc(OC(F)(F)F)ccc3[nH]2)o1` (stereo not drawn) [Example 151, 8-Oxo-9-[5-(5-trifluoromethoxy-1H-benzimidazol-2-ylsulfanyl)-furan-2-yl]-4,5,6,7,8,9-hexahydro-2H-pyrrolo[3,4-b][1,7]naphthyridine-3-carboxylic acid ethyl ester hydrochloride], for which the IC50 on Aurora2 (Aurora-A) is 60 nM; at Aurora1 (Aurora-B), 14 nM.

Values taken from patent publication US8163768B2, “1,4-dihydropyridine-fused heterocycles, process for preparing the same, use and compositions containing them” (Aventis Pharma S.A.., priority 2005, dated 2012).
